What follows are compounds tested against recombinant human PAI-1 (Homo sapiens, UniProt P05121) (assay: Test Example 2: Human PAI-1 Inhibitory Activity (pH 7.4 HEPES buffer, 10 minutes incubation with two-chain tPA)). Conditions: concentration that inhibits 50 % of the human PAI-1 activity, calculated from the inhibition rates of Test Example 2; read-out: IC50.
Type: biochemical
Design: purchased Molecular Innovations, Inc
Method: 0.1 M HEPES, 0.1 M NaCl. 1 mM EDTA. 0.1 % Polyethylene glycol 8,000 (Hampton Research Corporation),
2 mM Dimethyldecylphoshine oxide [Apo-10] (Fluka Corporation)

recombinant human PAI-1, sequence (P05121 24-402): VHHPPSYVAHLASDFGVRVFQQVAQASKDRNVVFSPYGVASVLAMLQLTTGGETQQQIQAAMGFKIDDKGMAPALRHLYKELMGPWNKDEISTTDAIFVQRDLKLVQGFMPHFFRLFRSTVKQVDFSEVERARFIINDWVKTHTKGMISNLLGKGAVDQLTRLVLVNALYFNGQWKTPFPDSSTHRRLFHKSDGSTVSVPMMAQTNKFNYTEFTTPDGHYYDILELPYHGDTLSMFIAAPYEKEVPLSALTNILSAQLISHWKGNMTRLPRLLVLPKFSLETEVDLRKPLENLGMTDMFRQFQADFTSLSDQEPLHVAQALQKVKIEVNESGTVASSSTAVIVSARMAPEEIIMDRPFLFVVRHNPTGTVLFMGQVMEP

SMILES	IC50
CCCCCCCc1ccc(-c2ccc(OC(F)(F)F)cc2)cc1N(CCCCc1ccccc1)C(=O)C(=O)O [Compound 371]	690 nM

Same assay, conditions: human PAI-1; calculated from the inhibition rates

IC50	SMILES
1460 nM	CC(C)(C)c1ccc(Oc2ccc(-c3ccc(C(F)(F)F)cc3)cc2OCC(=O)O)cc1 [Compound 328]

Same assay, conditions: read-out: Inhibition Rate of PAI-1 Activity (%)

inhibition at 0.1 µM	inhibition at 0.3 µM	inhibition at 1 µM	inhibition at 3 µM	inhibition at 10 µM	inhibition at 25 µM	SMILES
0%	0%	77%	> 99%	–	–	CC(C)(C)c1ccc(Oc2ccc(Nc3ccc(OC(F)(F)F)cc3)cc2/C=C/C(=O)O)cc1 [Compound 431]
10%	64%	96%	97%	–	–	CCCCCOc1cc(-c2ccc(OC(F)(F)F)cc2)ccc1CN(CC(=O)O)c1ccc(C(C)(C)C)cc1 [Compound 649]
0%	15%	94%	95%	–	–	CCCCCCC(Oc1cc(-c2ccc(OC(F)(F)F)cc2)ccc1Oc1ccc(C(F)(F)F)cc1)C(=O)O (stereo not shown) [Compound 327]
4%	11%	39%	> 99%	–	–	CSc1ccc(-c2ccc(OCC(=O)O)c(Oc3ccc(C(C)(C)C)cc3)c2)cc1 [Compound 448]
19%	17%	93%	96%	–	–	CCCCCOc1ccc(-c2ccc(C)cc2)cc1N(CCCCc1ccccc1)C(=O)C(=O)O [Compound 677]
16%	40%	> 99%	> 99%	–	–	CCCCCCCOc1cc(N(CCCCc2ccccc2)C(=O)C(=O)O)ccc1-c1ccc(OC(F)(F)F)cc1 [Compound 650]
0%	5%	80%	71%	–	–	CCCCC1CCC(Oc2ccc(-c3ccc(OC(F)(F)F)cc3)cc2N(CCCCc2ccccc2)C(=O)C(=O)O)CC1 (stereo not shown) [Compound 637]
0%	14%	30%	> 99%	–	–	CC(C)(C)c1ccc(Oc2ccc(-c3ccc(C(F)(F)F)cc3)cc2OCC(=O)O)cc1 [Compound 328]
7%	4%	60%	> 99%	–	–	O=C(O)C(=O)N(CCCCc1ccccc1)c1cc(-c2ccc(OC(F)(F)F)cc2)ccc1OCCCCCO [Compound 676]
8%	20%	90%	> 99%	–	–	CCCCC(Oc1cc(-c2cccc(C(F)(F)F)c2)ccc1Oc1ccc(C(C)(C)C)cc1)C(=O)O (stereo not shown) [Compound 318]
17%	22%	80%	> 99%	–	–	CC(C)(C)c1ccc(-c2ccc(CCC(=O)O)c(Oc3ccc(OC(F)(F)F)cc3)c2)cc1 [Compound 480]
1%	27%	62%	97%	–	–	CC(C)(C)c1ccc(Oc2cc(OCC(=O)O)cc(-c3ccc(OC(F)(F)F)cc3)c2)cc1 [Compound 427]
24%	64%	95%	88%	–	–	O=C(O)C(=O)N(CCCCc1ccccc1)c1cc(-c2ccc(OC(F)(F)F)cc2)ccc1OCCCC1CCCCC1 [Compound 656]
6%	11%	27%	> 99%	–	–	O=C(O)C(=O)N(Cc1ccc2ccccc2c1)c1ccc(-c2ccc(OC(F)(F)F)cc2)cc1 [Compound 661]
2%	21%	72%	81%	–	–	CC(C)(C)c1ccc(Oc2ccc(-c3ccc(OC(F)(F)F)cc3)cc2N(CCCCc2ccccc2)C(=O)C(=O)O)cc1 [Compound 636]
1%	19%	> 99%	> 99%	–	–	CC(C)c1ccc(-c2ccc(CCC(=O)O)c(Oc3ccc(C(C)(C)C)cc3)c2)cc1 [Compound 519]

inhibition at 0.1 µM	inhibition at 0.3 µM	inhibition at 1 µM	inhibition at 3 µM	inhibition at 10 µM	inhibition at 25 µM	SMILES
–	–	49%	94%	97%	86%	CC(C)(C)c1ccc(N(CC(=O)O)c2ccccc2Oc2ccc(OC(F)(F)F)cc2)cc1 [Compound 610]
21%	18%	63%	> 99%	–	–	CC(C)(C)c1ccc(Oc2cc(-c3ccc(Cl)cc3)ccc2OCC(=O)O)cc1 [Compound 457]
4%	27%	94%	> 99%	–	–	CCC(C)(C)c1ccc(Oc2cc(-c3ccc(OC(F)(F)F)cc3)ccc2CCC(=O)O)cc1 [Compound 475]
9%	8%	67%	> 99%	–	–	CC(C)(C)[C@H]1CC[C@H](N(C(=O)C(=O)O)c2ccc(-c3ccc(OC(F)(F)F)cc3)cc2)CC1 [Compound 665]
4%	15%	96%	> 99%	–	–	CC(C)(C)c1ccc(Oc2ccc(-c3ccc(C(C)(C)C)cc3)cc2OCC(=O)O)cc1 [Compound 453]
13%	21%	84%	> 99%	–	–	CN(CC(=O)O)c1ccc(-c2ccc(OC(F)(F)F)cc2)cc1Oc1ccc(C(C)(C)C)cc1 [Compound 534]
0%	19%	92%	92%	–	–	CCCCCOc1ccc(-c2ccc(OC(F)(F)F)cc2)cc1N(CCCCc1ccccc1)CC(=O)O [Compound 640]
0%	9%	31%	97%	–	–	O=C(O)C(=O)N(Cc1ccc(-c2ccc(OC(F)(F)F)cc2)cc1)c1ccccc1-c1ccccc1 [Compound 632]
0%	13%	87%	94%	–	–	CCCCC(Oc1cc(-c2ccc(OC(F)(F)F)cc2)ccc1Oc1ccc(C(C)(C)C)cc1)C(=O)O (stereo not shown) [Compound 303]
1%	3%	52%	93%	–	–	CCCCC(Oc1cc(-c2ccc(OC(F)(F)F)cc2)ccc1OCc1ccc(C(C)(C)C)cc1)C(=O)O (stereo not shown) [Compound 313]
17%	21%	93%	> 99%	–	–	CC(C)(C)c1ccc(Sc2cc(-c3ccc(OC(F)(F)F)cc3)ccc2CC(=O)O)cc1 [Compound 530]
9%	29%	89%	98%	–	–	CC(C)c1ccc(-c2ccc(OCC(=O)O)c(Oc3ccc(C(C)(C)C)cc3)c2)cc1 [Compound 441]
3%	15%	92%	> 99%	–	–	CCCCCOc1ccc(-c2cc(C)cc(C)c2)cc1N(CCCCc1ccccc1)C(=O)C(=O)O [Compound 672]
37%	94%	97%	95%	–	–	CC(C)(C)c1ccc(Sc2cc(-c3ccc(OC(F)(F)F)cc3)ccc2/C=C/C(=O)O)cc1 [Compound 462]
0%	4%	38%	> 99%	–	–	CCCCCOc1cc(-c2ccc(OC(F)(F)F)cc2)cc(OCCCCC)c1OCC(=O)O [Compound 424]
0%	3%	65%	> 99%	–	–	O=C(O)CCc1ccc(-c2ccc(OC(F)(F)F)cc2)cc1Oc1ccc2ccccc2c1 [Compound 476]

SMILES	inhibition at 0.1 µM	inhibition at 0.3 µM	inhibition at 1 µM	inhibition at 3 µM	inhibition at 10 µM	inhibition at 25 µM
CCCCCOc1cc(-c2cccc(OC(F)(F)F)c2)ccc1N(CCCCc1ccccc1)C(=O)C(=O)O [Compound 393]	8%	19%	75%	97%	–	–
O=C(O)C(=O)N(CCCCc1ccccc1)c1cc(-c2ccc(OC(F)(F)F)cc2)ccc1OCCCCc1ccccc1 [Compound 354]	5%	10%	91%	89%	–	–
CC(C)(C)c1cccc(Oc2cc(-c3ccc(OC(F)(F)F)cc3)ccc2/C=C/C(=O)O)c1 [Compound 335]	4%	8%	80%	> 99%	–	–
CC(C)(C)c1ccc(Oc2cc(-c3ccc(OC(F)(F)F)cc3)ccc2CC(=O)O)cc1 [Compound 334]	0%	1%	21%	87%	–	–
CC(C)(C)OCCOc1ccc(-c2ccc(OC(F)(F)F)cc2)cc1N(CCCCc1ccccc1)C(=O)C(=O)O [Compound 351]	2%	7%	23%	84%	–	–
CCCCCOc1ccc(Oc2ccc(OC(F)(F)F)cc2)cc1N(CCCCc1ccccc1)C(=O)C(=O)O [Compound 363]	2%	4%	72%	> 99%	–	–
CCCCCCCc1ccc(-c2ccc(OC(F)(F)F)cc2)cc1N(CCCCc1ccccc1)C(=O)C(=O)O [Compound 371]	10%	17%	93%	91%	–	–
CCCCCOc1cc(-c2ccc(OC(F)(F)F)cc2)ccc1N(CCCCc1ccccc1)C(=O)C(=O)O [Compound 367]	10%	26%	52%	94%	–	–
CCCCCOc1ccc(-c2cccc(C(F)(F)F)c2)cc1N(CCCCc1ccccc1)C(=O)C(=O)O [Compound 378]	20%	7%	80%	91%	–	–
